The source of these data is PMC7142633, “Impact of B-Ring Substitution and Acylation with Hydroxy Cinnamic Acids on the Inhibition of Porcine α-Amylase by Anthocyanin-3-Glycosides” (Foods, 2020).

This assay has as its target T1, α-amylase from porcine pancreas (Sus scrofa, UniProt P00690).
T1 construct: A saline suspension of α-amylase from porcine pancreas; purchased Sigma Aldrich (Steinheim, Germany) Lot #SLBN9170V (catalogue number not given); host or cells: porcine pancreas (tissue-derived)
T1 sequence (P00690 16-511): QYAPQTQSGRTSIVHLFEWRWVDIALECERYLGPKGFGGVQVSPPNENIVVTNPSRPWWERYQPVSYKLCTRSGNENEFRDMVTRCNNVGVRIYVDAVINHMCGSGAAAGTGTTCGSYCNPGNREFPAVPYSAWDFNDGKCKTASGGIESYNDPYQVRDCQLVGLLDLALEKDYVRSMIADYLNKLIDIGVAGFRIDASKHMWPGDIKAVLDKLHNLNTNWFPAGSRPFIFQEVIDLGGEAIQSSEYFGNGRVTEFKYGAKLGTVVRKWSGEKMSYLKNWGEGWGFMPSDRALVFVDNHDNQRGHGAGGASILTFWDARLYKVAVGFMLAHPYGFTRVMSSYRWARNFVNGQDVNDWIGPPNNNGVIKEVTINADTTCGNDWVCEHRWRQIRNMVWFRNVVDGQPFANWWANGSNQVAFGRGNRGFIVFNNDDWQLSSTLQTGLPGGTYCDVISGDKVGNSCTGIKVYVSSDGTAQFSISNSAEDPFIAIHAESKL
The experiment in a line: Isothermal titration calorimetry, single injection, GalG2CNP conversion. The following applies: 100 µM inhibitor, 0.95 mM substrate, 37 °C. The format is biochemical. Here is the method:
To evaluate the inhibitory strength of 100 µM anthocyanin-3-glucosides and black carrot anthocyanins, GalG2CNP conversion to CNP was monitored by the released heat. According to the previous study, ITC measurements were carried out in a single injection experiment set-up on a MICROCALTM PEAQ-ITC calorimeter (S/N MAL1188053, Malvern Panalytical Almelo, Netherlands). Following an equilibration time of 10 min, 1 µL α-amylase (1 µM in 50 mM MES^+ buffer) was added to 0.95 mM of the substrate with or without 100 µM of the phenolic inhibitor in the cell (Vcell = 0.207 mL). The temperature was maintained at 37 °C and the sample was stirred at 750 rpm throughout. The feedback/gain mode was set to high. The resulting heat profile was transformed and the conversion rate was plotted against the substrate concentration [S] by an origin routine template provided by Malvern® for Origin version 7.
In general terms: In ITC the heat of successive injections is recorded.

Each structure is given as a SMILES string.

Take `COc1cc(-c2[o+]c3cc(O)cc(O)c3cc2O[C@@H]2O[C@H](CO)[C@@H](O)[C@H](O)[C@H]2O)ccc1O` [Peo-glc, peonidin-3-glucoside]: the “inhibitory strength by ITC (thermogram, Michaelis Menten plot)” value is on record as “Mlv-3-glc > Cyd-3-glc > Dpd-3-glc~Peo-3-glc”.
